Activity, inhibition and CI data for 2 molecules are collected here from ChEMBL document CHEMBL4385661, “An investigation of targeted inhibition of transcription factor activity with pyrrole imidazole polyamide (PA) in chronic myeloid leukemia (CML) blast crisis cells” (2019).

Active and inactive are the calls of the source. The rule behind the calls is not given here. Bounds are passed on as bounds.

Experiment [1] relates to KCL-22. The experiment in a line: Induction of cell cycle arrest in human KCL22 cells assessed as accumulation at G0-G1 phase at 3 uM incubated for 72 hrs by propidium iodide staining based flow cytometry analysis (reference value: 57.4%). The experiment is classed as functional.
The species entered for experiment [2] is Homo sapiens. Kind of experiment: Binding affinity to E2F1 consensus sequence DNA in human KCL22 cells assessed as reduction in SF3B4 gene expression at 3 uM incubated for 24 hrs by RT-qPCR analysis relative to control. It is filed as cell-based. In general terms: In qPCR the cycle at which signal appears reflects the starting amount.
For experiment [3], the species on record is Homo sapiens. The experiment in a line: Binding affinity to E2F1 consensus sequence DNA in human KCL22 cells assessed as reduction in ZNF354B gene expression at 3 uM incubated for 24 hrs by RT-qPCR analysis relative to control. The experiment is classed as cell-based.
The species entered for experiment [4] is Homo sapiens. Kind of experiment: Binding affinity to E2F1 consensus sequence DNA in human KCL22 cells assessed as reduction in PET112L gene expression at 3 uM incubated for 24 hrs by RT-qPCR analysis relative to control. The experiment is classed as cell-based.
The species named for experiment [5] is Homo sapiens. Kind of experiment: Binding affinity to E2F1 consensus sequence DNA in human KCL22 cells assessed as reduction in PSMB8 gene expression at 3 uM incubated for 24 hrs by RT-qPCR analysis relative to control. The experiment is classed as cell-based.
Experiment [6] deals with KCL-22. Kind of experiment: Up-regulation of TRIM45 gene expression in human KCL22 cells at 3 uM incubated for 24 hrs by RT-qPCR analysis relative to control. The experiment is classed as functional, cell-based.
The species named for experiment [7] is Homo sapiens. The experiment in a line: Binding affinity to E2F1 consensus sequence DNA in human KCL22 cells assessed as reduction in MCM2 gene expression at 3 uM incubated for 24 hrs by RT-qPCR analysis relative to control. The experiment is classed as cell-based.
The subject of experiment [8] is KCL-22. The experiment in a line: Induction of cell cycle arrest in human KCL22 cells assessed as accumulation at S phase at 3 uM incubated for 72 hrs by propidium iodide staining based flow cytometry analysis (reference value: 23.7%). The experiment is classed as functional. (A flow cytometer gives signals particle by particle.)
For experiment [9], the species on record is Homo sapiens. Kind of experiment: Binding affinity to E2F1 consensus sequence DNA in human KCL22 cells assessed as reduction in MRRF gene expression at 3 uM incubated for 24 hrs by RT-qPCR analysis relative to control. The experiment is classed as cell-based.
Experiment [10] has as its system KCL-22. Kind of experiment: Inhibition of cell expansion in human KCL22 cells at 0.3 to 3 uM incubated for 48 hrs by trypan blue dye exclusion counting method. The experiment is classed as functional, cell-based.
The subject of experiment [11] is KCL-22. Kind of experiment: Inhibition of cell expansion in human KCL22 cells at 3 uM incubated for 48 hrs in presence of 10 nM nilotinib by trypan blue dye exclusion counting method. It is filed as functional, cell-based.
Experiment [12] has as its system KCL-22. Kind of experiment: Induction of cell cycle arrest in human KCL22 cells assessed as accumulation at subG0 phase at 3 uM incubated for 72 hrs by propidium iodide staining based flow cytometry analysis (reference value: 3.91%). It is filed as functional.
Experiment [13] relates to KCL-22. Kind of experiment: Inhibition of cell expansion in human KCL22 cells assessed as combination index at 3 uM incubated for 48 hrs in presence of 10 nM nilotinib by trypan blue dye exclusion counting method. It is filed as functional.
The species named for experiment [14] is Homo sapiens. The experiment in a line: Binding affinity to E2F1 consensus sequence DNA in human KCL22 cells assessed as reduction in GNA13 gene expression at 3 uM incubated for 24 hrs by RT-qPCR analysis relative to control. The experiment is classed as cell-based.
The subject of experiment [15] is KCL-22. Kind of experiment: Up-regulation of RARS2 gene expression in human KCL22 cells at 3 uM incubated for 24 hrs by RT-qPCR analysis relative to control. It is filed as functional, cell-based.
Experiment [16] deals with KCL-22. Kind of experiment: Induction of cell cycle arrest in human KCL22 cells assessed as accumulation at G2-M phase at 3 uM incubated for 72 hrs by propidium iodide staining based flow cytometry analysis (reference value: 14%). The experiment is classed as functional.
The subject of experiment [17] is KCL-22. The experiment in a line: Inhibition of cell expansion in human KCL22 cells at 10 nM incubated for 48 hrs by trypan blue dye exclusion counting method. The experiment is classed as functional, cell-based.

`CN(C)CCCNC(=O)c1cc(NC(=O)c2cc(NC(=O)c3cc(NC(=O)c4cc(NC(=O)[C@H](N)CCNC(=O)c5nc(NC(=O)c6nc(NC(=O)c7cc(NC(=O)c8nccn8C)cn7C)cn6C)cn5C)cn4C)cn3C)cn2C)cn1C`: the Activity in experiment [1] is listed as 58.1%; in [8], 26.4%; in experiment [12] it was 3.84%; in [16], 10.8%. The outcome in experiment [2], in experiment [3], in experiment [4], in experiment [5], in experiment [6] and in [7] was Active. The result in experiment [9], in experiment [14] and in experiment [15] was Active. For the same molecule, the inhibition entry in experiment [10] and in experiment [11] was “Active” in each case. Also, the CI in experiment [13] is over 1.
Turning to `Cc1cn(-c2cc(NC(=O)c3ccc(C)c(Nc4nccc(-c5cccnc5)n4)c3)cc(C(F)(F)F)c2)cn1`, the inhibition entry in experiment [17] was “Active”.
